According to paper PMC9036822 (Journal of medicinal chemistry, 2021):
Entries after “also recorded” stand apart in the source; their conditions may differ. Where two headings read alike, the source gives them in different places.

Experiments:
PRMT5:WDR77 complex = PRMT5:WDR77 complex (Homo sapiens, UniProt O14744); assay: SPR competition assay, full-length pICln titrated on pre-incubated PRMT5:WDR77; assay type: binding; conditions: PRMT5 pre-incubated with 2 μM compound overnight at 4C
[1] = target: PRMT5:WDR77 hetero-octameric complex (Homo sapiens, UniProt O14744); assay: Fluorescence polarization; assay type: binding; conditions: for inhibition of PRMT5-PBM peptide binding (in words): FP assay
PRMT5 C278A mutant = PRMT5 C278A mutant (Homo sapiens, UniProt O14744, C278A); assay: FP competition assay with C278A mutant PRMT5
PRMT5-RIOK1 complex = PRMT5-RIOK1 complex (Homo sapiens, UniProt O14744); assay: PRMT5-RIOK1 NanoBiT assay in permeabilized cells; assay type: cell-based
PRMT5 = PRMT5 (Homo sapiens, UniProt O14744); assay: Target engagement in cells; assay type: cell-based; conditions: Expi293 cells, 6 hours, maximum labeling
[2] = tested on: symmetric arginine dimethylation levels in MTAP−/− HCT116 cells; assay: Western blot of total symmetric arginine dimethylation; assay type: cell-based; conditions: 25 μM

Chain of PRMT5:WDR77 hetero-octameric complex (O14744 whole entry): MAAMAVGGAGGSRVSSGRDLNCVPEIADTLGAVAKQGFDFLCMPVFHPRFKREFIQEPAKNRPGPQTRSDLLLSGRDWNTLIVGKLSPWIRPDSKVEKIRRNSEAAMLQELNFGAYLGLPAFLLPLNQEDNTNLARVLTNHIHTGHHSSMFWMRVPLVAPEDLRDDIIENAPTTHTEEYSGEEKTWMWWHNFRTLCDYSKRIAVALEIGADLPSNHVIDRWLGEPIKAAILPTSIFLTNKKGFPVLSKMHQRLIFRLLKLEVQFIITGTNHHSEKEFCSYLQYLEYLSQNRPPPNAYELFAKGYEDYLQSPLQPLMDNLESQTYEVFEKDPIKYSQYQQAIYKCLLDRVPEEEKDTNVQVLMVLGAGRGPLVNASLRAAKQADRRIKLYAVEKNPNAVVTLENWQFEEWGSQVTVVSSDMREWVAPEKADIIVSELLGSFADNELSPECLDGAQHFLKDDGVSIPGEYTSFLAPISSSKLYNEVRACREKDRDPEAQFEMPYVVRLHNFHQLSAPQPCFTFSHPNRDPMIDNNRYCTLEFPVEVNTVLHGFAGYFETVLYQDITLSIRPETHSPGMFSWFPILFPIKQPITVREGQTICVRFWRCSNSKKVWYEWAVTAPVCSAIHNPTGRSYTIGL
Chain of PRMT5:WDR77 hetero-octameric complex (Q9BQA1 whole entry partner): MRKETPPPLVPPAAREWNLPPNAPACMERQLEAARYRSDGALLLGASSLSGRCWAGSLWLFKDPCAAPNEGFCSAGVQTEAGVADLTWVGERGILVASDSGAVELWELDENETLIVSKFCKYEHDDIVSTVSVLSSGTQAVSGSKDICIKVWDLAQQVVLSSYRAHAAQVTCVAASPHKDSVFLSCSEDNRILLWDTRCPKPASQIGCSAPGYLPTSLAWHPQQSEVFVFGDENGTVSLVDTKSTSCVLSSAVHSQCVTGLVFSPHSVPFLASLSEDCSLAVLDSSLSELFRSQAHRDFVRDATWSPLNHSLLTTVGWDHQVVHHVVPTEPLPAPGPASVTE
Chain of PRMT5 C278A mutant (O14744 whole entry C278A): as the sequence (O14744 whole entry) above, with C278A counted along it
Chain of PRMT5 C278A mutant (Q9BQA1 whole entry partner): as the sequence (Q9BQA1 whole entry partner) above
Chain of PRMT5 (O14744 whole entry): as the sequence (O14744 whole entry) above
Chain of PRMT5 (Q9BQA1 whole entry partner): as the sequence (Q9BQA1 whole entry partner) above
Chain of PRMT5-RIOK1 complex (O14744 whole entry): as the sequence (O14744 whole entry) above
Chain of PRMT5-RIOK1 complex (Q9BQA1 whole entry partner): as the sequence (Q9BQA1 whole entry partner) above
Chain of PRMT5:WDR77 complex (O14744 whole entry): as the sequence (O14744 whole entry) above
Chain of PRMT5:WDR77 complex (Q9BQA1 whole entry partner): as the sequence (Q9BQA1 whole entry partner) above

Compound: Cc1ccc(NC(=O)Cn2ncc(Cl)c(Cl)c2=O)cc1S(=O)(=O)NCCc1ccccn1 [Compound 6, 2-(4,5-Dichloro-6-oxopyridazin-1(6H)-yl)-N-(4-methyl-3-(N-(2-(pyridin-2-yl)ethyl)sulfamoyl)phenyl)acetamide]
- pICln binding to compound-treated PRMT5 (in words) (PRMT5:WDR77 complex): greatly reduced binding response
- IC50 [1]: 600 nM
- IC50 (PRMT5 C278A mutant): > 100000 nM

Compound: Nc1nc2cc(CC[C@H]3C[C@@H](n4ccc5c(N)ncnc54)[C@H](O)[C@@H]3O)ccc2cc1Br [JNJ-64619178]
- inhibition of PRMT5-PBM peptide binding (in words) [1]: failed to inhibit this binding

Compound: competitor PBM peptide: pICln 13-mer control peptide displacing the fluorescently-labeled PBM probe (TVAGQFEDADVDH; Terminal caps are) [reference compound]
- IC50 ([1]; read-out: FP IC50 against WT PRMT5, Fig. 3b, WT vs C278A comparison): 2000 nM
- IC50 (PRMT5 C278A mutant; read-out: FP IC50 against C278A mutant, Fig. 3b, C278A PRMT5): 1400 nM

Compound: Cc1ccc(N(C)C(=O)[C@H](C)n2ncc(Cl)cc2=O)cc1S(=O)(=O)NCCc1ccccn1 [Compound 29, (2S)-2-(4-chloro-6-oxo-pyridazin-1-yl)-N-methyl-N-[4-methyl-3-[2-(2-pyridyl)ethylsulfamoyl]phenyl]propanamide]
- disruption of PRMT5-RIOK1 complex, permeabilized cells (in words) (PRMT5-RIOK1 complex): inactive

Compound: CSC[C@H]1O[C@@H](n2cnc3c(N)ncnc32)[C@H](O)[C@@H]1O [MTA, 5′-S-Methyl-5′-thioadenosine]
- IC50 [1]: > 100000 nM

Compound: Cc1ccc(NC(=O)[C@H](C)n2ncc(Cl)cc2=O)cc1S(=O)(=O)NCCc1ccccn1 [Compound 27, (2S)-2-(4-chloro-6-oxo-pyridazin-1-yl)-N-[4-methyl-3-[2-(2-pyridyl)ethylsulfamoyl]phenyl]propanamide]
- total PRMT5 protein labeled (PRMT5): ~ 40%
- symmetric arginine dimethylation levels by WB (in words) [2]: reduction in symmetric arginine dimethylation levels; also recorded: reduces SDMA

Compound: CN(C)S(=O)(=O)N1CCCC(NC(=O)Cn2ncc(Cl)c(Cl)c2=O)C1 (stereo not drawn) [Compound 18, 2-(4,5-Dichloro-6-oxopyridazin-1(6H)-yl)-N-(1-(N,N-dimethylsulfamoyl)piperidin-3-yl)acetamide]
- inhibition of PRMT5-PBM peptide binding (in words) [1]: no ability to displace the PBM peptide

Compound: O=C(NC[C@H](O)CN1CCc2ccccc2C1)c1cc(NC2COC2)ncn1 [EPZ015666]
- inhibition of PRMT5-PBM peptide binding (in words) [1]: failed to inhibit this binding
